Reference: patent publication US10202361B2, “Pyridazinones as herbicides” (E I DU PONT DE NEMOURS AND COMPANY, priority 2014, dated 2019)

Assays:
Assay type in all cases: in vivo
[1] = system: sedge, umbrella (small-flower umbrella sedge, Cyperus difformis); assay: Test B flooded paddy test; conditions: Flood, scale of 0 to 100, 0 is no effect, 100 is complete control, 13 to 15 d
Method: (§1) Plant species in the flooded paddy test selected from rice (Oryza sativa), small-flower sedge, umbrella (small-flower umbrella sedge, Cyperus difformis), ducksalad (Heteranthera limosa), and barnyardgrass (Echinochloa crus-galli) were grown to the 2-leaf stage for testing. At time of treatment, test pots were flooded to 3 cm above the soil surface, treated by application of test compounds directly to the paddy water, and then maintained at that water depth for the duration of the test. Treated plants and controls were maintained in a greenhouse for 13 to 15 d, after which time all species were compared to controls and visually evaluated. Plant response ratings, summarized in Table B, are based on a scale of 0 to 100 where 0 is no effect and 100 is complete control. A dash (-) response means no test result.

rice (Oryza sativa) = assay: Test B flooded paddy test; conditions: Flood, scale of 0 to 100, 0 is no effect, 100 is complete control, 13 to 15 d
Method: as §1

[2] = system: barnyardgrass (Echinochloa crus-galli); assay: Test B flooded paddy test; conditions: Flood, scale of 0 to 100, 0 is no effect, 100 is complete control, 13 to 15 d
Method: as §1

[3] = system: ducksalad (Heteranthera limosa); assay: Test B flooded paddy test; conditions: Flood, scale of 0 to 100, 0 is no effect, 100 is complete control, 13 to 15 d
Method: as §1

[4] = system: foxtail, giant (giant foxtail, Setaria faberii); assay: Test A pre-/postemergence greenhouse herbicide test; conditions: 0 to 100 scale (0 no effect, 100 complete control), approx. 10 d
Source text: (§2) Seeds of plant species selected from barnyardgrass (Echinochloa crus-galli), crabgrass, Large (large crabgrass, Digitaria sanguinalis), foxtail, giant (giant foxtail, Setaria faberii), morningglory (Ipomoea spp.), pigweed (Amaranthus retroflexus), velvetleaf (Abutilon theophrasti), wheat (Triticum aestivum), and corn (Zea mays) were planted into a blend of loam soil and sand and treated preemergence with a directed soil spray using test chemicals formulated in a non-phytotoxic solvent mixture which included a surfactant. At the same time these species were also treated with postemergence applications of test chemicals formulated in the same manner.
(§3) Plants ranged in height from 2 to 10 cm and were in the one- to two-leaf stage for the postemergence treatment. Treated plants and untreated controls were maintained in a greenhouse for approximately 10 d, after which time all treated plants were compared to untreated controls and visually evaluated for injury. Plant response ratings, summarized in Table A, are based on a 0 to 100 scale where 0 is no effect and 100 is complete control. A dash (-) response means no test result.

[5] = system: wheat (Triticum aestivum); assay: as above; conditions: 0 to 100 scale (0 no effect, 100 complete control), approx. 10 d
Source text: as §2, §3

[6] = system: morningglory (Ipomoea spp.); assay: as above; conditions: 0 to 100 scale (0 no effect, 100 complete control), approx. 10 d
Source text: as §2, §3

corn (Zea mays) = assay: as above; conditions: 0 to 100 scale (0 no effect, 100 complete control), approx. 10 d
Source text: as §2, §3

[7] = system: pigweed (Amaranthus retroflexus); assay: as above; conditions: 0 to 100 scale (0 no effect, 100 complete control), approx. 10 d
Source text: as §2, §3

[8] = system: barnyardgrass (Echinochloa crus-galli); assay: as above; conditions: 0 to 100 scale (0 no effect, 100 complete control), approx. 10 d
Source text: as §2, §3

[9] = system: velvetleaf (Abutilon theophrasti); assay: as above; conditions: 0 to 100 scale (0 no effect, 100 complete control), approx. 10 d
Source text: as §2, §3

[10] = system: crabgrass, Large (large crabgrass, Digitaria sanguinalis); assay: as above; conditions: 0 to 100 scale (0 no effect, 100 complete control), approx. 10 d
Source text: as §2, §3

SMILES	Plant response rating, Foxtail, Giant ([4]; Postemergence, 125 g ai/ha)	Plant response rating, Foxtail, Giant ([4]; Postemergence, 500 g ai/ha)	Plant response rating, Foxtail, Giant ([4]; Preemergence, 125 g ai/ha)	Plant response rating, Foxtail, Giant ([4]; Preemergence, 500 g ai/ha)	Plant response rating, Wheat ([5]; Postemergence, 125 g ai/ha)	Plant response rating, Wheat ([5]; Postemergence, 500 g ai/ha)	Plant response rating, Wheat ([5]; Preemergence, 125 g ai/ha)	Plant response rating, Wheat ([5]; Preemergence, 500 g ai/ha)	Plant response rating, Morningglory ([6]; Postemergence, 125 g ai/ha)	Plant response rating, Morningglory ([6]; Postemergence, 500 g ai/ha)	Plant response rating, Morningglory ([6]; Preemergence, 125 g ai/ha)	Plant response rating, Morningglory ([6]; Preemergence, 500 g ai/ha)	Plant response rating, Corn (corn (Zea mays); Postemergence, 125 g ai/ha)	Plant response rating, Corn (corn (Zea mays); Postemergence, 500 g ai/ha)	Plant response rating, Corn (corn (Zea mays); Preemergence, 125 g ai/ha)	Plant response rating, Corn (corn (Zea mays); Preemergence, 500 g ai/ha)	Plant response rating, Pigweed ([7]; Postemergence, 125 g ai/ha)	Plant response rating, Pigweed ([7]; Postemergence, 500 g ai/ha)	Plant response rating, Pigweed ([7]; Preemergence, 125 g ai/ha)	Plant response rating, Pigweed ([7]; Preemergence, 500 g ai/ha)	further results
Cc1cc(=O)n(-c2cccc(C(F)(F)F)c2)nc1Oc1ccnc(C(F)(F)F)c1 [Compound 4]	30	70	70	100	10	20	0	10	40	70	20	40	10	30	0	10	100	100	100	100	Plant response rating, Sedge, Umbrella ([1]; 125 g ai/ha): 70; Plant response rating, Rice (rice (Oryza sativa); 125 g ai/ha): 40; Plant response rating, Barnyardgrass ([2]; 125 g ai/ha): 20; Plant response rating, Ducksalad ([3]; 125 g ai/ha): 65; Plant response rating, Barnyardgrass ([8]; Postemergence, 125 g ai/ha): 10; Plant response rating, Barnyardgrass ([8]; Postemergence, 500 g ai/ha): 20; Plant response rating, Barnyardgrass ([8]; Preemergence, 125 g ai/ha): 10; Plant response rating, Barnyardgrass ([8]; Preemergence, 500 g ai/ha): 40; Plant response rating, Velvetleaf ([9]; Postemergence, 125 g ai/ha): 90; Plant response rating, Velvetleaf ([9]; Postemergence, 500 g ai/ha): 100; Plant response rating, Velvetleaf ([9]; Preemergence, 125 g ai/ha): 10; Plant response rating, Velvetleaf ([9]; Preemergence, 500 g ai/ha): 20; Plant response rating, Crabgrass, Large ([10]; Postemergence, 125 g ai/ha): 30; Plant response rating, Crabgrass, Large ([10]; Postemergence, 500 g ai/ha): 60; Plant response rating, Crabgrass, Large ([10]; Preemergence, 125 g ai/ha): 90; Plant response rating, Crabgrass, Large ([10]; Preemergence, 500 g ai/ha): 100
O=c1c2c(c(Oc3ccnc(C(F)(F)F)c3)nn1-c1ccc(Cl)cc1)CCCC2 [Compound 7]	10	10	0	30	0	10	0	0	10	20	0	0	10	10	0	0	90	100	20	50	Plant response rating, Sedge, Umbrella ([1]; 125 g ai/ha): 0; Plant response rating, Rice (rice (Oryza sativa); 125 g ai/ha): 0; Plant response rating, Barnyardgrass ([2]; 125 g ai/ha): 0; Plant response rating, Ducksalad ([3]; 125 g ai/ha): 0; Plant response rating, Barnyardgrass ([8]; Postemergence, 125 g ai/ha): 0; Plant response rating, Barnyardgrass ([8]; Postemergence, 500 g ai/ha): 10; Plant response rating, Barnyardgrass ([8]; Preemergence, 125 g ai/ha): 0; Plant response rating, Barnyardgrass ([8]; Preemergence, 500 g ai/ha): 40; Plant response rating, Velvetleaf ([9]; Postemergence, 125 g ai/ha): 20; Plant response rating, Velvetleaf ([9]; Postemergence, 500 g ai/ha): 40; Plant response rating, Velvetleaf ([9]; Preemergence, 125 g ai/ha): 0; Plant response rating, Velvetleaf ([9]; Preemergence, 500 g ai/ha): 0; Plant response rating, Crabgrass, Large ([10]; Postemergence, 125 g ai/ha): 10; Plant response rating, Crabgrass, Large ([10]; Postemergence, 500 g ai/ha): 10; Plant response rating, Crabgrass, Large ([10]; Preemergence, 125 g ai/ha): 0; Plant response rating, Crabgrass, Large ([10]; Preemergence, 500 g ai/ha): 40
Cc1cc(=O)n(-c2ccc(F)cc2)nc1Cc1cccc(C(F)(F)F)c1 [Compound 8]	50	90	80	90	10	20	0	0	80	80	0	0	20	40	0	0	90	100	90	100	Plant response rating, Sedge, Umbrella ([1]; 250 g ai/ha): 75; Plant response rating, Rice (rice (Oryza sativa); 250 g ai/ha): 25; Plant response rating, Barnyardgrass ([2]; 250 g ai/ha): 20; Plant response rating, Ducksalad ([3]; 250 g ai/ha): 0; Plant response rating, Barnyardgrass ([8]; Postemergence, 125 g ai/ha): 20; Plant response rating, Barnyardgrass ([8]; Postemergence, 500 g ai/ha): 50; Plant response rating, Barnyardgrass ([8]; Preemergence, 125 g ai/ha): 20; Plant response rating, Barnyardgrass ([8]; Preemergence, 500 g ai/ha): 80; Plant response rating, Velvetleaf ([9]; Postemergence, 125 g ai/ha): 20; Plant response rating, Velvetleaf ([9]; Postemergence, 500 g ai/ha): 80; Plant response rating, Velvetleaf ([9]; Preemergence, 125 g ai/ha): 0; Plant response rating, Velvetleaf ([9]; Preemergence, 500 g ai/ha): 0; Plant response rating, Crabgrass, Large ([10]; Postemergence, 125 g ai/ha): 40; Plant response rating, Crabgrass, Large ([10]; Postemergence, 500 g ai/ha): 90; Plant response rating, Crabgrass, Large ([10]; Preemergence, 125 g ai/ha): 90; Plant response rating, Crabgrass, Large ([10]; Preemergence, 500 g ai/ha): 100
Cc1cc(Oc2cc(C(F)(F)F)ccn2)nn(-c2ccc(F)cc2)c1=O [Compound 9]	0	0	0	0	0	0	0	0	0	0	0	0	0	0	0	0	0	0	0	0	Plant response rating, Sedge, Umbrella ([1]; 250 g ai/ha): 0; Plant response rating, Rice (rice (Oryza sativa); 250 g ai/ha): 0; Plant response rating, Barnyardgrass ([2]; 250 g ai/ha): 0; Plant response rating, Ducksalad ([3]; 250 g ai/ha): 0; Plant response rating, Barnyardgrass ([8]; Postemergence, 125 g ai/ha): 0; Plant response rating, Barnyardgrass ([8]; Postemergence, 500 g ai/ha): 0; Plant response rating, Velvetleaf ([9]; Postemergence, 125 g ai/ha): 0; Plant response rating, Velvetleaf ([9]; Postemergence, 500 g ai/ha): 0; Plant response rating, Velvetleaf ([9]; Preemergence, 125 g ai/ha): 0; Plant response rating, Velvetleaf ([9]; Preemergence, 500 g ai/ha): 0; Plant response rating, Crabgrass, Large ([10]; Postemergence, 125 g ai/ha): 0; Plant response rating, Crabgrass, Large ([10]; Postemergence, 500 g ai/ha): 0; Plant response rating, Crabgrass, Large ([10]; Preemergence, 125 g ai/ha): 0; Plant response rating, Crabgrass, Large ([10]; Preemergence, 500 g ai/ha): 0
Cc1cc(=O)n(-c2ccc(F)cc2)nc1Oc1cc(C(F)(F)F)ccn1 [Compound 10]	0	10	0	20	0	0	0	0	30	30	0	0	0	10	0	0	30	60	0	30	Plant response rating, Sedge, Umbrella ([1]; 250 g ai/ha): 0; Plant response rating, Rice (rice (Oryza sativa); 250 g ai/ha): 0; Plant response rating, Barnyardgrass ([2]; 250 g ai/ha): 0; Plant response rating, Ducksalad ([3]; 250 g ai/ha): 0; Plant response rating, Barnyardgrass ([8]; Postemergence, 125 g ai/ha): 0; Plant response rating, Barnyardgrass ([8]; Postemergence, 500 g ai/ha): 0; Plant response rating, Velvetleaf ([9]; Postemergence, 125 g ai/ha): 0; Plant response rating, Velvetleaf ([9]; Postemergence, 500 g ai/ha): 10; Plant response rating, Velvetleaf ([9]; Preemergence, 125 g ai/ha): 0; Plant response rating, Velvetleaf ([9]; Preemergence, 500 g ai/ha): 0; Plant response rating, Crabgrass, Large ([10]; Postemergence, 125 g ai/ha): 10; Plant response rating, Crabgrass, Large ([10]; Postemergence, 500 g ai/ha): 20; Plant response rating, Crabgrass, Large ([10]; Preemergence, 125 g ai/ha): 0; Plant response rating, Crabgrass, Large ([10]; Preemergence, 500 g ai/ha): 10
